Assays:
RKO colon cancer cells = test: Western blot of proapoptotic responses and Sp proteins in RKO cells; format: cell-based
Protocol: RKO cells were […] with BA or CN-BA for 24 hr and whole cell lysates were examined by Western blot analysis.
RKO colon cancer cells were treated with BA/CN-BA for 24 hr (FIG. 15A) or 48 hr (FIG. 15B) and Miapaca-2 pancreatic cancer cells were treated with BA/CN-BA for 24 hr (FIG. 15C). Whole cell lysates were examined by Western blot analysis.

3T3-L1 adipocytes = test: 3T3-L1 differentiation and Oil Red O staining; format: cell-based; conditions: 0.25 μM
Protocol: 3T3-L1 preadipocytes were cultured on poly-lysine-coated coverslips with DMEM and 10% FBS at 5% CO2 in 24-well plates. At 2 days post-confluence, cells were incubated with fresh media supplemented with 3-isobutyl-1-methylxanthine (0.5 mM), dexamethasone (1 μM), insulin (1.7 μM), and indicated compounds (0.25 μM). After 48 hr, cells were changed to fresh media and treated with DMSO or indicated compounds for 5 days. Cells without any treatment for the entire 7 days were used as control. The cells were then fixed with 10% formalin. Fixed cells were washed with 60% isopropanol and stained with filtered 60% Oil Red O in deionized water. After staining, cells were washed with water and photographed.

PPARγ = biological target: T1, PPARγ (Homo sapiens, UniProt P37231); test: Mammalian two-hybrid assay (VP-PPARγ / GAL4-coactivator) in SW480 cells; format: cell-based
T1 construct: containing the DEF region of the PPARγ (amino acids 183-505) fused to the pVP16 expression vector; expressed in transfected cells; host or cells: SW480 colon cancer cells; plasmid provided by Dr. Shigeaki Kato (University of Tokyo)
T1 sequence (P37231 183-505): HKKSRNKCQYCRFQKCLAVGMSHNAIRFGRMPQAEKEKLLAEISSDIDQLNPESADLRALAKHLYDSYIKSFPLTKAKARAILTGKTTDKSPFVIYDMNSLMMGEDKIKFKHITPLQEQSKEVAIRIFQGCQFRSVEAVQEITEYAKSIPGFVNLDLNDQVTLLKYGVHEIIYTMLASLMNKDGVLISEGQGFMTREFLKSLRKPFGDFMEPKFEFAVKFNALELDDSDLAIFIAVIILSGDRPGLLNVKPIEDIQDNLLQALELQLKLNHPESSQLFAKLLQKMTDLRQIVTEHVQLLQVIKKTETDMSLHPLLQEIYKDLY
Protocol: The GAL4 reporter construct containing 5×GAL4 response elements (p GAL4) was provided by Dr. Marty Mayo (University of […], Chapel Hill, N.C.). The GAL4-coactivator fusion plasmids pM-SRC1, pMSRC2, pMSRC3, pM-DRIP205, pM-CARM-1 and PPARγ-VP16 fusion plasmid (Vp-PPARγ) containing the DEF region of the PPARγ (amino acids 183-505) fused to the pVP16 expression vector were provided by Dr. Shigeaki Kato (University of Tokyo, Tokyo, Japan). SW480 colon cancer cells were plated in 12-well tissue culture plates at 1×10^5 cells per well in DMEM/Ham's F-12 medium supplemented with 2.5% charcoal stripped FBS.
After allowing them to adhere overnight, transient transfections were carried out with GAL4-Luc (0.4 μg), β-GAL (0.04 μg), VP-PPARγ (0.04 μg), pM-SRC1 (0.04 μg), pM-PGC-1 (0.04 μg), pM-SMRT (0.04 μg), pM-TRAP220 (0.04 μg), pM-DRIP205 (0.04 μg), and pMCARM1 (0.04 μg) using LipofectAMINE2000 (Invitrogen) following the manufacturer's guidelines. After 6 hr of transfection, cells were treated in triplicate either with vehicle (DMSO) or the indicated compound suspended in complete medium for 20-24 hr. One hundred μL per well of 1× Reporter Lysis Buffer (Promega) was used to lyse the cells and 30 μl of this lysate was used to perform the luciferase and β-GAL assays using Lumicount (Perkin-Elmer Life and Analytical Sciences, Boston, Mass.). The luciferase activities obtained were normalized to the β-gal activity.

SW480 cells = test: KLF4 mRNA (RT-PCR) in SW480 cells; format: cell-based, human
Protocol: SW480 and HT29 colon cancer cells were treated either with vehicle (DMSO) or indicated compounds and after 24 hr total RNA was extracted using RNeasy Mini kit (Qiagen, Inc., Valencia, Calif.). RNA concentration was measured by UV 260:280 nm absorption ratio and 2 μg RNA was used to synthesize cDNA using Reverse Transcription System (Promega). PCR conditions were as follows: initial denaturation at 94° C. (1 min) followed by 28 cycles of denaturation for 30 s at 94° C., annealing for 60 s at 55° C. and extension at 72° C. for 60 s and a final extension step at 72° C. for 5 min. The mRNA levels were normalized using GAPDH as an internal housekeeping gene. Primers obtained from IDT and used for amplification are as follows: KLF4 (sense 5′-CTATGGCAGGGAGTCCGCTCC-3′ (SEQ ID NO: 1); antisense 5′-ATGACCGACGGGCTGCCGTAC-3′ (SEQ ID NO: 2)) and GAPDH (sense 5′-ACGGATTTGGTCGTATTGGGCG-3′ (SEQ ID NO: 3); antisense 5′-CTCCTGGAAGATGGTGATGG-3′ (SEQ ID NO: 4). PCR products were electrophoresed on 1% agarose gels containing ethidium bromide and visualized under UV transillumination.

activation of GAL4-CARM1 (PPARγ)	Compound	concentrations decreasing Sp proteins (RKO colon cancer cells; 48 hr)	Oil Red O staining (fat droplets) (3T3-L1 adipocytes)	Sp protein expression (RKO colon cancer cells; 24 and 48 hr)	ATF3, JNK phosphorylation, CHOP and DR5 (RKO colon cancer cells; 24 hours)	proapoptotic responses (RKO colon cancer cells; 24 hours)	luciferase activity, VP-PPARγ with GAL4 PGC-1 and GAL4 SRC-1 (PPARγ)	KLF4 expression (SW480 cells)
–	C=C(C)[C@@H]1CC[C@]2(C(=O)O)CC[C@]3(C)[C@H](CC[C@@H]4[C@@]5(C)CC[C@H](O)C(C)(C)[C@@H]5CC[C@]43C)[C@@H]12 [betulinic acid, Betulinic acid]	1 to 5 µM	–	–	–	–	–	–
–	CC(C)C1CCC2(C(=O)O)CCC3(C)C(CCC4C5(C)C=C(C#N)C(=O)C(C)(C)C5CCC43C)C12 (centres unmarked) [CN-BA]	–	induce Oil Red O staining	decrease Sp protein expression	activate	activate proapoptotic responses	significantly induced luciferase activity	did not induce KLF4 expression
activated	COC(=O)C12CCC(C(C)C)C1C1CCC3C4(C)C=C(C#N)C(=O)C(C)(C)C4CCC3(C)C1(C)CC2 (centres unmarked) [CN-BA-Me, Methyl 2-cyano-lup-1-en-3-oxo-20-oate]	–	induce Oil Red O staining	–	–	–	significantly induced luciferase activity	did not induce KLF4 expression

From patent US20090203661A1, “Betulinic acid, derivatives and analogs thereof and uses therefor” (priority 2006, published 2009)
